Experimental data published in patent US9981899B2, “Composition containing reduced coenzyme Q10 and production method thereof” (KANEKA CORPORATION, priority 2006, dated 2018).

Assays:
[1] = Oxidative stability: residual ratio of reduced coenzyme Q10 after preservation at 40° C. in the air in light shading for 30 days; type: physicochemical
Method: The reduced coenzyme Q10 residual ratio (%) after preservation at 40° C. in the air for 30 days under shading conditions of the particulate composition containing reduced coenzyme Q10 of the present invention is not particularly limited. It is not less than about 50 wt %, preferably not less than about 60 wt %, more preferably not less than about 70 wt %, still more preferably not less than about 80 wt %, particularly preferably not less than about 90 wt %.
The purity of reduced coenzyme Q10 and the weight ratio (%) of reduced coenzyme Q10 were determined by the following HPLC analysis (weight ratio (%)={reduced coenzyme Q10/(oxidized coenzyme Q10+reduced coenzyme Q10)}×100).

[2] = Crystallinity of reduced coenzyme Q10 in the particulate composition by DSC; type: physicochemical; conditions: after preservation at 25° C. in the air for 30 days; measured/theoretical melting calorie
Method: The crystallinity of reduced coenzyme Q10 in the obtained particulate composition was determined by the following DSC (differential scanning calorimeter [EXSTAR6000 manufactured by Seiko Instruments Inc.]) analysis after preservation at 25° C. in the air for 30 days. The particulate compositions obtained in Examples and Comparative Examples were preserved under the above-mentioned given conditions, 10 mg thereof was taken in an aluminum pan and the temperature was elevated from 15° C. to 70° C. at a temperature rise rate of 5° C./min, during which the crystal melting calorie was measured. The crystallinity was calculated according to the following formula using the theoretical melting calorie determined from the content of reduced coenzyme Q10 in the particulate composition and the data of melting calorie actually measured by DSC. Crystallinity (%)=(measured melting calorie/theoretical melting calorie)×100 (Volume Average Particle Size)

COc1c(O)c(C)c(C/C=C(\C)CC/C=C(\C)CC/C=C(\C)CC/C=C(\C)CC/C=C(\C)CC/C=C(\C)CC/C=C(\C)CC/C=C(\C)CC/C=C(\C)CCC=C(C)C)c(O)c1OC [Comparative Example 1, reduced coenzyme Q10]
residual ratio of the reduced coenzyme Q10 [1]: 28%
crystallinity measured by DSC [2]: 100%
